Source: patent US20260262643A1, “HERBICIDAL BENZOXAZINES” (FMC CORPORATION, priority 2022, published 2026)

What was measured:
[1] = tested on: soybean; experiment: Test A preemergence; format: in vivo, Glycine max; settings: 0 to 100 scale
Procedure, shortened: (§1)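 Visual injury ratings on a 0–100 scale (100 = complete control) versus untreated controls, taken 10 days after treatment in greenhouse. Preemergence: directed soil spray onto seeded loam/sand. Postemergence: foliar application at one- to two-leaf stage, plants 2–10 cm. Formulation: non-phytotoxic solvent plus surfactant.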

[2] = tested on: ducksalad; experiment: Test B flooded paddy test; format: in vivo, Heteranthera limosa; settings: 250 g ai/ha, Flood, 13 days, 0 to 100 scale (0 no effect, 100 complete control)
Procedure, shortened: (§2)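 Application into standing water (3 cm above soil) at the two-leaf stage; flood depth held constant. Evaluation: day 13, visual comparison with controls, 0 = no injury, 100 = complete control.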

[3] = tested on: rice; experiment: Test B flooded paddy test; format: in vivo, Oryza sativa; settings: 250 g ai/ha, Flood, 13 days, 0 to 100 scale (0 no effect, 100 complete control)
Procedure, shortened: as §2

[4] = tested on: barnyardgrass; experiment: Test A postemergence; format: in vivo, Echinochloa crusgalli; settings: postemergence, 10 days; for Barnyardgrass plant response rating: 125 g ai/ha, 0 to 100 scale, 0 no effect, 100 complete control; for Plant response rating, Barnyardgrass: 500 g ai/ha, visual injury, 0 to 100 scale (0 no effect, 100 complete control)
Text: (§3) Seeds of plant species selected from barnyardgrass (Echinochloa crusgalli), blackgrass (Alopecurus myosuroides), corn (Zea mays), foxtail, giant (giant foxtail, Setaria faberi), goosegrass (Eleusine indica), kochia (Bassia scoparia), oat, wild (wild oat, Avena fatua), pigweed, palmer (palmer amaranth, palmer pigweed, Amaranthus palmeri), Pigweed, Redroot (redroot pigweed, Amaranthus retroflexus), ragweed (common ragweed, Ambrosia artemisiifolia), ryegrass, Italian (italian ryegrass, Lolium multiflorum), soybean (Glycine max), and wheat (Triticum aestivum) were planted into a blend of loam soil and sand and treated preemergence with a directed soil spray using test chemicals formulated in a non-phytotoxic solvent mixture which included a surfactant. At the same time, plants selected from these crops and weed species and also galium (catchweed bedstraw, Galium aparine) and horseweed (Erigeron canadensis) were planted in pots containing the same blend of loam soil and sand and treated with postemergence applications of test chemicals formulated in the same manner. Plants ranged in height from 2 to 10 cm and were in the one- to two-leaf stage for the postemergence treatment. Treated plants and untreated controls were maintained in a greenhouse for 10 days, after which time all treated plants were compared to untreated controls and visually evaluated for injury. Plant response ratings, summarized in Table A, are based on a 0 to 100 scale where 0 is no effect and 100 is complete control. A dash (-) response means no test result.

[5] = tested on: blackgrass; experiment: Test A preemergence; format: in vivo, Alopecurus myosuroides; settings: 0 to 100 scale
Procedure, shortened: as §1

[6] = tested on: sedge, umbrella; experiment: Test B flooded paddy test; format: in vivo, Cyperus difformis; settings: 250 g ai/ha, Flood, 13 days, 0 to 100 scale (0 no effect, 100 complete control)
Procedure, shortened: as §2

[7] = tested on: corn; experiment: Test A postemergence; format: in vivo, Zea mays; settings: postemergence, 10 days; for Corn plant response rating: 125 g ai/ha, 0 to 100 scale, 0 no effect, 100 complete control; for Plant response rating, Corn: 500 g ai/ha, visual injury, 0 to 100 scale (0 no effect, 100 complete control)
Procedure, shortened: as §1

[8] = tested on: blackgrass; experiment: Test A postemergence; format: in vivo, Alopecurus myosuroides; settings: postemergence, 10 days; for Blackgrass plant response rating: 125 g ai/ha, 0 to 100 scale, 0 no effect, 100 complete control; for Plant response rating, Blackgrass: 500 g ai/ha, visual injury, 0 to 100 scale (0 no effect, 100 complete control)
Procedure, shortened: as §1

[9] = tested on: barnyardgrass; experiment: Test B flooded paddy test; format: in vivo, Echinochloa crus-galli; settings: 250 g ai/ha, Flood, 13 days, 0 to 100 scale (0 no effect, 100 complete control)
Procedure, shortened: as §2

[10] = tested on: oat, wild; experiment: Test A postemergence; format: in vivo, Avena fatua; settings: postemergence, 10 days; for Oat, Wild plant response rating: 125 g ai/ha, 0 to 100 scale, 0 no effect, 100 complete control; for Plant response rating, Oat, Wild: 500 g ai/ha, visual injury, 0 to 100 scale (0 no effect, 100 complete control)
Procedure, shortened: as §1

[11] = tested on: ragweed; experiment: Test A preemergence; format: in vivo, Ambrosia artemisiifolia; settings: 0 to 100 scale
Procedure, shortened: as §1

[12] = tested on: kochia; experiment: Test A postemergence; format: in vivo, Bassia scoparia; settings: postemergence, 10 days; for Kochia plant response rating: 125 g ai/ha, 0 to 100 scale, 0 no effect, 100 complete control; for Plant response rating, Kochia: 500 g ai/ha, visual injury, 0 to 100 scale (0 no effect, 100 complete control)
Procedure, shortened: as §1

[13] = tested on: ryegrass, Italian; experiment: Test A postemergence; format: in vivo, Lolium multiflorum; settings: postemergence, 10 days; for Ryegrass, Italian plant response rating: 125 g ai/ha, 0 to 100 scale, 0 no effect, 100 complete control; for Plant response rating, Ryegrass, Italian: 500 g ai/ha, visual injury, 0 to 100 scale (0 no effect, 100 complete control)
Procedure, shortened: as §1

[14] = tested on: soybean; experiment: Test A postemergence; format: in vivo, Glycine max; settings: postemergence, 10 days; for Soybean plant response rating: 125 g ai/ha, 0 to 100 scale, 0 no effect, 100 complete control; for Plant response rating, Soybean: 500 g ai/ha, visual injury, 0 to 100 scale (0 no effect, 100 complete control)
Procedure, shortened: as §1

[15] = tested on: barnyardgrass; experiment: Test A preemergence; format: in vivo, Echinochloa crusgalli; settings: visual injury after 10 days, 0 to 100 scale, 0 is no effect, 100 is complete control
Text: as §3

[16] = tested on: wheat; experiment: Test A preemergence; format: in vivo, Triticum aestivum; settings: 0 to 100 scale
Procedure, shortened: as §1

[17] = tested on: horseweed; experiment: Test A postemergence; format: in vivo, Erigeron canadensis; settings: postemergence, 10 days; for Horseweed plant response rating: 125 g ai/ha, 0 to 100 scale, 0 no effect, 100 complete control; for Plant response rating, Horseweed: 500 g ai/ha, visual injury, 0 to 100 scale (0 no effect, 100 complete control)
Procedure, shortened: as §1

[18] = tested on: pigweed, palmer; experiment: Test A postemergence; format: in vivo, Amaranthus palmeri; settings: postemergence, 10 days; for Pigweed, Palmer plant response rating: 125 g ai/ha, 0 to 100 scale, 0 no effect, 100 complete control; for Plant response rating, Pigweed, Palmer: 500 g ai/ha, visual injury, 0 to 100 scale (0 no effect, 100 complete control)
Procedure, shortened: as §1

[19] = tested on: ragweed; experiment: Test A postemergence; format: in vivo, Ambrosia artemisiifolia; settings: postemergence, 10 days; for Ragweed plant response rating: 125 g ai/ha, 0 to 100 scale, 0 no effect, 100 complete control; for Plant response rating, Ragweed: 500 g ai/ha, visual injury, 0 to 100 scale (0 no effect, 100 complete control)
Procedure, shortened: as §1

[20] = tested on: wheat; experiment: Test A postemergence; format: in vivo, Triticum aestivum; settings: postemergence, 10 days; for Wheat plant response rating: 125 g ai/ha, 0 to 100 scale, 0 no effect, 100 complete control; for Plant response rating, Wheat: 500 g ai/ha, visual injury, 0 to 100 scale (0 no effect, 100 complete control)
Procedure, shortened: as §1

[21] = tested on: kochia; experiment: Test A preemergence; format: in vivo, Bassia scoparia; settings: 0 to 100 scale
Procedure, shortened: as §1

[22] = tested on: corn; experiment: Test A preemergence; format: in vivo, Zea mays; settings: 0 to 100 scale
Procedure, shortened: as §1

[23] = tested on: ryegrass, Italian; experiment: Test A preemergence; format: in vivo, Lolium multiflorum; settings: 0 to 100 scale
Procedure, shortened: as §1

[24] = tested on: oat, wild; experiment: Test A preemergence; format: in vivo, Avena fatua; settings: 0 to 100 scale
Procedure, shortened: as §1

[25] = tested on: galium; experiment: Test A postemergence; format: in vivo, Galium aparine; settings: postemergence, 10 days; for Galium plant response rating: 125 g ai/ha, 0 to 100 scale, 0 no effect, 100 complete control; for Plant response rating, Galium: 500 g ai/ha, visual injury, 0 to 100 scale (0 no effect, 100 complete control)
Procedure, shortened: as §1

[26] = tested on: pigweed, palmer; experiment: Test A preemergence; format: in vivo, Amaranthus palmeri; settings: 0 to 100 scale
Procedure, shortened: as §1

[27] = 125 g ai/ha, visual injury after 10 days, 0 is no effect, 100 is complete control
[28] = 500 g ai/ha, visual injury after 10 days, 0 is no effect, 100 is complete control

SMILES: C[C@H]1CN(C(=O)c2cc(C3CC3)cc(-n3cncn3)c2)c2cccc(Cl)c2O1 [Compound 136]
- Plant response rating, Soybean [1, 27]: 10
- Plant response rating, Soybean [1, 28]: 60
- Plant response rating, Ducksalad [2]: 0
- Plant response rating, Rice [3]: 0
- Barnyardgrass plant response rating [4]: 20
- Plant response rating, Barnyardgrass [4]: 70
- Plant response rating, Blackgrass [5, 27]: 70
- Plant response rating, Blackgrass [5, 28]: 90
- Plant response rating, Sedge, Umbrella [6]: 0
- Corn plant response rating [7]: 30
- Plant response rating, Corn [7]: 90
- Blackgrass plant response rating [8]: 90
- Plant response rating, Blackgrass [8]: 100
- Plant response rating, Barnyardgrass [9]: 0
- Oat, Wild plant response rating [10]: 10
- Plant response rating, Oat, Wild [10]: 30
- Plant response rating, Ragweed [11, 27]: 0
- Plant response rating, Ragweed [11, 28]: 20
- Kochia plant response rating [12]: 30
- Plant response rating, Kochia [12]: 70
- Ryegrass, Italian plant response rating [13]: 60
- Plant response rating, Ryegrass, Italian [13]: 90
- Soybean plant response rating [14]: 100
- Plant response rating, Soybean [14]: 100
- Plant response rating, Barnyardgrass ([15]; 125 g ai/ha): 30
- Plant response rating, Barnyardgrass ([15]; 500 g ai/ha): 90
- Plant response rating, Wheat [16, 27]: 10
- Plant response rating, Wheat [16, 28]: 30
- Horseweed plant response rating [17]: 0
- Plant response rating, Horseweed [17]: 0
- Pigweed, Palmer plant response rating [18]: 30
- Plant response rating, Pigweed, Palmer [18]: 90
- Ragweed plant response rating [19]: 20
- Plant response rating, Ragweed [19]: 30
- Wheat plant response rating [20]: 20
- Plant response rating, Wheat [20]: 30
- Plant response rating, Kochia [21, 27]: 0
- Plant response rating, Kochia [21, 28]: 70
- Plant response rating, Corn [22, 27]: 0
- Plant response rating, Corn [22, 28]: 30
- Plant response rating, Ryegrass, Italian [23, 27]: 80
- Plant response rating, Ryegrass, Italian [23, 28]: 90
- Plant response rating, Oat, Wild [24, 27]: 20
- Plant response rating, Oat, Wild [24, 28]: 30
- Galium plant response rating [25]: 80
- Plant response rating, Galium [25]: 100
- Plant response rating, Pigweed, Palmer [26, 27]: 70
- Plant response rating, Pigweed, Palmer [26, 28]: 100

SMILES: C[C@H]1CN(C(=O)c2cc(I)cc(-n3cncn3)c2)c2cccc(Cl)c2O1 [Compound 137]
- Plant response rating, Soybean ([1]; 125 g ai/ha): 0
- Plant response rating, Soybean [1, 28]: 0
- Plant response rating, Ducksalad [2]: 0
- Plant response rating, Rice [3]: 0
- Barnyardgrass plant response rating [4]: 10
- Plant response rating, Barnyardgrass [4]: 10
- Plant response rating, Blackgrass ([5]; 125 g ai/ha): 0
- Plant response rating, Blackgrass [5, 28]: 30
- Plant response rating, Sedge, Umbrella [6]: 0
- Corn plant response rating [7]: 10
- Plant response rating, Corn [7]: 10
- Blackgrass plant response rating [8]: 20
- Plant response rating, Blackgrass [8]: 70
- Plant response rating, Barnyardgrass [9]: 0
- Oat, Wild plant response rating [10]: 0
- Plant response rating, Oat, Wild [10]: 0
- Plant response rating, Ragweed ([11]; 125 g ai/ha): 0
- Plant response rating, Ragweed [11, 28]: 0
- Kochia plant response rating [12]: 30
- Plant response rating, Kochia [12]: 70
- Ryegrass, Italian plant response rating [13]: 20
- Plant response rating, Ryegrass, Italian [13]: 30
- Soybean plant response rating [14]: 80
- Plant response rating, Soybean [14]: 90
- Plant response rating, Barnyardgrass ([15]; 125 g ai/ha): 0
- Plant response rating, Barnyardgrass ([15]; 500 g ai/ha): 40
- Plant response rating, Wheat ([16]; 125 g ai/ha): 0
- Plant response rating, Wheat [16, 28]: 0
- Horseweed plant response rating [17]: 0
- Plant response rating, Horseweed [17]: 30
- Pigweed, Palmer plant response rating [18]: 30
- Plant response rating, Pigweed, Palmer [18]: 60
- Ragweed plant response rating [19]: 30
- Plant response rating, Ragweed [19]: 30
- Wheat plant response rating [20]: 10
- Plant response rating, Wheat [20]: 10
- Plant response rating, Kochia ([21]; 125 g ai/ha): 0
- Plant response rating, Kochia [21, 28]: 0
- Plant response rating, Corn ([22]; 125 g ai/ha): 0
- Plant response rating, Corn [22, 28]: 50
- Plant response rating, Ryegrass, Italian ([23]; 125 g ai/ha): 70
- Plant response rating, Ryegrass, Italian [23, 28]: 80
- Plant response rating, Oat, Wild ([24]; 125 g ai/ha): 0
- Plant response rating, Oat, Wild [24, 28]: 0
- Galium plant response rating [25]: 80
- Plant response rating, Galium [25]: 90
- Plant response rating, Pigweed, Palmer ([26]; 125 g ai/ha): 10
- Plant response rating, Pigweed, Palmer [26, 28]: 80
